Earlier results, collected in PMC4610172, “5-Arylaminouracil Derivatives as Potential Dual-Action Agents” (Acta Naturae, 2015).

Test system: MS-115 strain with multiple-drug resistance
Conditions: MS-115 resistant to isoniazid, rifampicin, streptomycin, ethambutol, pyrazinamide; cited from earlier work

CCCCOc1ccc(Nc2cn(C3C=CC(O)C3)c(=O)n(C3C=CC(O)C3)c2=O)cc1 (stereo not shown) [Compound 19]
Activity against MS-115 strain relative to sensitive H37Rv laboratory strain: higher activity against the MS-115 strain
